Laboratory results: the supplement of paper PMC10627819

Assays:
S. aureus DSM 20231 [1] = assay: Bliss interaction score (quartile over a dose matrix) (fitness difference); higher = more antagonism (negative = synergy)
How it was run: (§1)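 OD595 was read at entry into stationary phase and expressed relative to the robust mean of the no-drug wells on the same plate, capped at 1. The resulting ratio is the fitness value. The Bliss score, observed fitness minus product-based expected fitness with single-drug fitness inferred from combinations, is summarised by quartiles over technical, biological and donor/recipient replicates.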

B. subtilis 168 [2] = assay: as above
How it was run: as §1

S. aureus Newman [3] = assay: as above
How it was run: as §1

S. pneumoniae D39V [4] = assay: as above
How it was run: as §1

S. aureus DSM 20231 [5] = assay: fitness (endpoint OD595 vs no drug) (fraction); higher = more growth
How it was run: (§2)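 Background-subtracted growth curves were the basis for fitness, taken as the optical density at entry into stationary phase over the robust mean of no-drug control wells. A cap of 1 was applied. The curves came from OD595 readings every 30 min for 14 h at 37 °C, in 384-well plates seeded at OD595 0.01 with 30 µl, or 55 µl for S. pneumoniae.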

B. subtilis 168 [6] = assay: as above
How it was run: as §2

S. aureus Newman [7] = assay: as above
How it was run: as §2

S. pneumoniae D39V [8] = assay: as above
How it was run: as §2

[9] = first compound 0.125 µg/mL, partner 0.625 µg/mL
[10] = first compound 0.125 µg/mL, partner 1.25 µg/mL
[11] = first compound 0.125 µg/mL, partner 2.5 µg/mL
[12] = first compound 0.25 µg/mL, partner 0.625 µg/mL
[13] = first compound 0.25 µg/mL, partner 1.25 µg/mL
[14] = first compound 0.25 µg/mL, partner 2.5 µg/mL
[15] = first compound 0.5 µg/mL, partner 0.625 µg/mL
[16] = first compound 0.5 µg/mL, partner 1.25 µg/mL
[17] = first compound 0.5 µg/mL, partner 2.5 µg/mL
[18] = first compound 1 µg/mL, partner 1.25 µg/mL
[19] = first compound 1 µg/mL, partner 2.5 µg/mL
[20] = first compound 2 µg/mL, partner 1.25 µg/mL
[21] = first compound 2 µg/mL, partner 2.5 µg/mL
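Wherever Bliss interaction score (quartile over a dose matrix) is given: first quartile when negative (synergy) and third quartile when positive (antagonism).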

With `CCCCCCCCCC(=O)N[C@@H](Cc1c[nH]c2ccccc12)C(=O)N[C@H](CC(N)=O)C(=O)N[C@@H](CC(=O)O)C(=O)N[C@@H]1C(=O)NCC(=O)N[C@@H](CCCN)C(=O)N[C@@H](CC(=O)O)C(=O)N[C@H](C)C(=O)N[C@@H](CC(=O)O)C(=O)NCC(=O)N[C@H](CO)C(=O)N[C@@H]([C@H](C)CC(=O)O)C(=O)N[C@@H](CC(=O)c2ccccc2N)C(=O)O[C@@H]1C` [Daptomycin] + Cc1ncc([N+](=O)[O-])n1CCO [Metronidazole] the Bliss interaction score (S. aureus DSM 20231 [1]) was 0.0276, the Bliss interaction score (B. subtilis 168 [2]) was -0.0566 and the Bliss interaction score (S. aureus Newman [3]) was 0.0422. It also gave a Bliss interaction score (S. pneumoniae D39V [4]) of 0.0723, a fitness (S. aureus DSM 20231 [5]; [9]) of 0.924 and a fitness (S. aureus DSM 20231 [5]; [10]) of no less than 1. The fitness (S. aureus DSM 20231 [5]; [11]) was 0.983, the fitness (S. aureus DSM 20231 [5]; [12]) was 0.932 and the fitness (S. aureus DSM 20231 [5]; [13]) was no less than 1. It also gave a fitness (S. aureus DSM 20231 [5]; [14]) of no less than 1, a fitness (S. aureus DSM 20231 [5]; [15]) of no less than 1 and a fitness (S. aureus DSM 20231 [5]; [16]) of no less than 1. For the same compound, the fitness (S. aureus DSM 20231 [5]; [17]) was no less than 1, the fitness (S. aureus DSM 20231 [5]; first compound 1 µg/mL, partner 0.625 µg/mL) was no less than 1 and the fitness (S. aureus DSM 20231 [5]; [18]) was no less than 1. It also gave a fitness (S. aureus DSM 20231 [5]; [19]) of no less than 1, a fitness (S. aureus DSM 20231 [5]; first compound 2 µg/mL, partner 0.625 µg/mL) of no less than 1 and a fitness (S. aureus DSM 20231 [5]; [20]) of no less than 1. It also gave a fitness (S. aureus DSM 20231 [5]; [21]) of no less than 1, a fitness (B. subtilis 168 [6]; [9]) of 0.942 and a fitness (B. subtilis 168 [6]; [10]) of 0.892. For the same compound, the fitness (B. subtilis 168 [6]; [11]) was 0.93, the fitness (B. subtilis 168 [6]; [12]) was 0.899 and the fitness (B. subtilis 168 [6]; [13]) was 0.966. For the same compound, the fitness (B. subtilis 168 [6]; [14]) was 0.944, the fitness (B. subtilis 168 [6]; [15]) was 0.935 and the fitness (B. subtilis 168 [6]; [16]) was 0.904. The fitness (B. subtilis 168 [6]; [17]) was 0.874, the fitness (B. subtilis 168 [6]; first compound 1 µg/mL, partner 0.625 µg/mL, one replicate) was 0.736 and the fitness (B. subtilis 168 [6]; first compound 1 µg/mL, partner 1.25 µg/mL, one replicate) was 0.806. It also gave a fitness (B. subtilis 168 [6]; first compound 1 µg/mL, partner 2.5 µg/mL, one replicate) of 0.754, a fitness (S. aureus Newman [7]; [9]) of 0.935 and a fitness (S. aureus Newman [7]; first compound 0.125 µg/mL, partner 0.781 µg/mL, one replicate) of no less than 1. For the same compound, the fitness (S. aureus Newman [7]; [10]) was no less than 1, the fitness (S. aureus Newman [7]; first compound 0.125 µg/mL, partner 1.562 µg/mL, one replicate) was no less than 1 and the fitness (S. aureus Newman [7]; [11]) was 0.982. It also gave a fitness (S. aureus Newman [7]; first compound 0.125 µg/mL, partner 3.124 µg/mL, one replicate) of no less than 1, a fitness (S. aureus Newman [7]; [12]) of 0.951 and a fitness (S. aureus Newman [7]; first compound 0.25 µg/mL, partner 0.781 µg/mL, one replicate) of no less than 1. The fitness (S. aureus Newman [7]; [13]) was no less than 1, the fitness (S. aureus Newman [7]; first compound 0.25 µg/mL, partner 1.562 µg/mL, one replicate) was no less than 1 and the fitness (S. aureus Newman [7]; [14]) was 0.994. The fitness (S. aureus Newman [7]; first compound 0.25 µg/mL, partner 3.124 µg/mL, one replicate) was no less than 1, the fitness (S. aureus Newman [7]; [15]) was no less than 1 and the fitness (S. aureus Newman [7]; first compound 0.5 µg/mL, partner 0.781 µg/mL, one replicate) was no less than 1. The fitness (S. aureus Newman [7]; [16]) was no less than 1, the fitness (S. aureus Newman [7]; first compound 0.5 µg/mL, partner 1.562 µg/mL, one replicate) was no less than 1 and the fitness (S. aureus Newman [7]; [17]) was 0.975. For the same compound, the fitness (S. aureus Newman [7]; first compound 0.5 µg/mL, partner 3.124 µg/mL, one replicate) was no less than 1, the fitness (S. pneumoniae D39V [8]; first compound 1 µg/mL, partner 1.073 µg/mL) was 0.846 and the fitness (S. pneumoniae D39V [8]; [18]) was 0.977. For the same compound, the fitness (S. pneumoniae D39V [8]; first compound 1 µg/mL, partner 2.145 µg/mL) was 0.786, the fitness (S. pneumoniae D39V [8]; [19]) was no less than 1 and the fitness (S. pneumoniae D39V [8]; first compound 1 µg/mL, partner 4.29 µg/mL) was 0.777. It also gave a fitness (S. pneumoniae D39V [8]; first compound 1 µg/mL, partner 5 µg/mL) of 0.993, a fitness (S. pneumoniae D39V [8]; first compound 2 µg/mL, partner 1.073 µg/mL) of 0.9 and a fitness (S. pneumoniae D39V [8]; [20]) of 0.985. For the same compound, the fitness (S. pneumoniae D39V [8]; first compound 2 µg/mL, partner 2.145 µg/mL) was 0.876, the fitness (S. pneumoniae D39V [8]; [21]) was no less than 1 and the fitness (S. pneumoniae D39V [8]; first compound 2 µg/mL, partner 4.29 µg/mL) was 0.87. The fitness (S. pneumoniae D39V [8]; first compound 2 µg/mL, partner 5 µg/mL) was no less than 1, the fitness (S. pneumoniae D39V [8]; first compound 4 µg/mL, partner 1.073 µg/mL) was 0.949 and the fitness (S. pneumoniae D39V [8]; first compound 4 µg/mL, partner 1.25 µg/mL) was 0.93. It also gave a fitness (S. pneumoniae D39V [8]; first compound 4 µg/mL, partner 2.145 µg/mL) of 0.888, a fitness (S. pneumoniae D39V [8]; first compound 4 µg/mL, partner 2.5 µg/mL) of 0.97 and a fitness (S. pneumoniae D39V [8]; first compound 4 µg/mL, partner 4.29 µg/mL) of 0.928. For the same compound, the fitness (S. pneumoniae D39V [8]; first compound 4 µg/mL, partner 5 µg/mL) was 0.976.
